# Values of other authors in patent US20120237563A1, “CONTROLLED-RELEASE FORMULATIONS OF […] AND USES THEREOF” (UNIVERSITY OF FLORIDA RESEARCH […]., priority 2009, published 2012).
# Conditions: clinical studies
smiles,measurement,setting,value
"COc1ccc(/C=C2\CCCN=C2c2cccnc2)c(OC)c1 [DMXBA, 3-(2,4-dimethoxybenzylidene)-anabaseine]",Safety of large oral doses,,without adverse effects
same,Half-life,oral,two
